“And” between values parts separate entries of the source, which are not always exact repeats. Equal values may be shown once. ± gives the expanded uncertainty stated by the source.

The nature of this data set: refractive index (Na D-line) (dimensionless); wn = mass fraction of the nth substance listed. Conditions: 298.15 K; 84.5 kPa; Liquid; Standard Abbe refractometry; w1 = 0.02.
The refractive index is a measure of how strongly the sample bends light. For the compound `CCCCn1cc[n+](C)c1.F[B-](F)(F)F` [1-butyl-3-methylimidazolium tetrafluoroborate] + O, the refractive index is 1.3339 ± 0.00055 and 1.33393 ± 0.00055 and 1.33391 ± 0.00055.

Turning to `O=C(CO)[C@@H](O)[C@H](O)[C@H](O)CO` [D-fructose] + O, the refractive index is 1.33525 ± 0.00055.

`O=C[C@H](O)[C@@H](O)[C@H](O)[C@H](O)CO` [D-glucose] + O: the refractive index is recorded as 1.33529 ± 0.00055.

Turning to `OC[C@H]1O[C@@](CO)(O[C@H]2O[C@H](CO)[C@@H](O)[C@H](O)[C@H]2O)[C@@H](O)[C@@H]1O` [D-sucrose] + O, the refractive index is given as 1.33518 ± 0.00055.

Consider `O=C[C@H](O)[C@@H](O)[C@@H](O)CO` [L-arabinose] + O, for which the refractive index was 1.33523 ± 0.00055.

These data come from the NIST ThermoML archive (doi:10.1021/acs.jced.8b00678).
